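Step 1: Grow cells in 96-well plates. Step 2: Expose to compound for 48 hours at 5 concentrations. Step 3: Interpolate endpoints linearly; if unreached, use highest concentration. GI50 marks 50% less growth. TGI is the concentration that stops growth completely.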
Key:
Assay in all cases: DTP human tumour cell line panel, 48 h
786-0 renal = tested on: 786-0 renal
A498 renal = tested on: A498 renal
A549 NSCLC = tested on: A549 NSCLC
ACHN renal = tested on: ACHN renal
BT-549 breast = tested on: BT-549 breast
CAKI-1 renal = tested on: CAKI-1 renal
CCRF-CEM leukemia = tested on: CCRF-CEM leukemia
COLO 205 colon = tested on: COLO 205 colon
DU-145 prostate = tested on: DU-145 prostate
EKVX NSCLC = tested on: EKVX NSCLC
HCC-2998 colon = tested on: HCC-2998 colon
HCT-15 colon = tested on: HCT-15 colon
HOP-62 NSCLC = tested on: HOP-62 NSCLC
HS 578T breast = tested on: HS 578T breast
HT29 colon = tested on: HT29 colon
IGROV1 ovarian = tested on: IGROV1 ovarian
K-562 leukemia = tested on: K-562 leukemia
KM12 colon = tested on: KM12 colon
M14 melanoma = tested on: M14 melanoma
MALME-3M melanoma = tested on: MALME-3M melanoma
MCF7 breast = tested on: MCF7 breast
MDA-MB-231 breast = tested on: MDA-MB-231 breast
MDA-MB-435 = tested on: MDA-MB-435
MOLT-4 leukemia = tested on: MOLT-4 leukemia
NCI-H226 lung = tested on: NCI-H226 lung
NCI-H460 lung = tested on: NCI-H460 lung
NCI-H522 lung = tested on: NCI-H522 lung
NCI/ADR-RES ovarian = tested on: NCI/ADR-RES ovarian
OVCAR-3 ovarian = tested on: OVCAR-3 ovarian
OVCAR-4 ovarian = tested on: OVCAR-4 ovarian
OVCAR-5 ovarian = tested on: OVCAR-5 ovarian
OVCAR-8 ovarian = tested on: OVCAR-8 ovarian
PC-3 prostate = tested on: PC-3 prostate
RPMI-8226 leukemia = tested on: RPMI-8226 leukemia
RXF 393 renal = tested on: RXF 393 renal
SF-268 CNS = tested on: SF-268 CNS
SF-295 CNS = tested on: SF-295 CNS
SF-539 CNS = tested on: SF-539 CNS
SK-MEL-2 melanoma = tested on: SK-MEL-2 melanoma
SK-MEL-28 melanoma = tested on: SK-MEL-28 melanoma
SK-MEL-5 melanoma = tested on: SK-MEL-5 melanoma
SK-OV-3 ovarian = tested on: SK-OV-3 ovarian
SN12C renal = tested on: SN12C renal
SNB-19 CNS = tested on: SNB-19 CNS
SNB-75 CNS = tested on: SNB-75 CNS
SR leukemia = tested on: SR leukemia
SW-620 colon = tested on: SW-620 colon
T-47D breast = tested on: T-47D breast
TK-10 renal = tested on: TK-10 renal
U251 CNS = tested on: U251 CNS
UACC-257 melanoma = tested on: UACC-257 melanoma
UACC-62 melanoma = tested on: UACC-62 melanoma
UO-31 renal = tested on: UO-31 renal

## CC(C)Sc1nc(Nc2ccc(S(N)(=O)=O)cc2)c(C#N)c(-c2ccc(F)cc2)n1
786-0 renal
  GI50: 3.31 µM
  TGI: 11.1 µM
A498 renal
  GI50: 2.82 µM
A549 NSCLC
  TGI: 10.4 µM
ACHN renal
  GI50: 3.07 µM
  TGI: 9.12 µM
BT-549 breast
  GI50: 9.29 µM
  TGI: 35.4 µM
CAKI-1 renal
  GI50: 1.78 µM
  TGI: 3.61 µM
CCRF-CEM leukemia
  GI50: 7.35 µM
COLO 205 colon
  GI50: 7.98 µM
  TGI: 30.2 µM
DU-145 prostate
  GI50: 5.68 µM
  TGI: > 100 µM
EKVX NSCLC
  GI50: 3.31 µM
  TGI: 14.1 µM
HCC-2998 colon
  GI50: 10.7 µM
  TGI: 27.6 µM
HCT-15 colon
  TGI: > 100 µM
HOP-62 NSCLC
  GI50: 3.12 µM
  TGI: 10.7 µM
HS 578T breast
  GI50: 2.76 µM
  TGI: 9.31 µM
HT29 colon
  GI50: 2.09 µM
  TGI: 4.77 µM
IGROV1 ovarian
  TGI: 20.7 µM
K-562 leukemia
  GI50: 4.26 µM
KM12 colon
  GI50: 6.92 µM
  TGI: > 100 µM
M14 melanoma
  GI50: 5.59 µM
  TGI: 23.7 µM
MALME-3M melanoma
  GI50: 3.2 µM
  TGI: 10.3 µM
MCF7 breast
  TGI: 32.1 µM
MDA-MB-231 breast
  GI50: 2.86 µM
  TGI: 8.1 µM
MDA-MB-435
  GI50: 4.35 µM
  TGI: 31.9 µM
MOLT-4 leukemia
  GI50: 5.39 µM
NCI-H226 lung
  GI50: 2.14 µM
  TGI: 5.54 µM
NCI-H460 lung
  TGI: 5.57 µM
NCI-H522 lung
  GI50: 8 µM
NCI/ADR-RES ovarian
  GI50: 3.24 µM
OVCAR-3 ovarian
  GI50: 3.02 µM
  TGI: 8.51 µM
OVCAR-4 ovarian
  GI50: 2.1 µM
  TGI: 4.92 µM
OVCAR-5 ovarian
  GI50: 14.6 µM
  TGI: 62.4 µM
OVCAR-8 ovarian
  GI50: 3.98 µM
  TGI: 15.7 µM
PC-3 prostate
  GI50: 4.84 µM
  TGI: 19 µM
RPMI-8226 leukemia
  GI50: 9.22 µM
  TGI: 64.3 µM
RXF 393 renal
  TGI: 4.47 µM
SF-268 CNS
  GI50: 5.49 µM
  TGI: 30.6 µM
SF-295 CNS
  GI50: 1.95 µM
  TGI: 3.73 µM
SF-539 CNS
  TGI: 4.81 µM
SK-MEL-2 melanoma
  GI50: 19 µM
  TGI: 55.7 µM
SK-MEL-28 melanoma
  GI50: 14.6 µM
  TGI: 37.7 µM
SK-MEL-5 melanoma
  GI50: 23.3 µM
  TGI: 77.4 µM
SK-OV-3 ovarian
  GI50: 3.04 µM
  TGI: 8.94 µM
SN12C renal
  GI50: 2.38 µM
  TGI: 5.99 µM
SNB-19 CNS
  GI50: 2.85 µM
  TGI: 8.01 µM
SNB-75 CNS
  GI50: 2.49 µM
  TGI: 9.2 µM
SR leukemia
  GI50: 3.73 µM
SW-620 colon
  GI50: 3.84 µM
  TGI: 22.8 µM
T-47D breast
  GI50: 3.46 µM
  TGI: 20.3 µM
TK-10 renal
  GI50: 3.08 µM
U251 CNS
  GI50: 1.81 µM
  TGI: 3.54 µM
UACC-257 melanoma
  GI50: 14.4 µM
  TGI: 47.8 µM
UACC-62 melanoma
  GI50: 10.3 µM
  TGI: 26.3 µM
UO-31 renal
  GI50: 2.39 µM
  TGI: 8.92 µM

## CC(=O)OC[C@H]1OC(O)C=C[C@@H]1OC(C)=O (stereo partly specified)
786-0 renal
  GI50: 94.1 µM
  TGI: 178 µM
A549 NSCLC
  GI50: 767 µM
  TGI: 2490 µM
ACHN renal
  GI50: 81.5 µM
  TGI: 151 µM
BT-549 breast
  GI50: 89.2 µM
  TGI: 162 µM
CAKI-1 renal
  GI50: 91.1 µM
  TGI: 170 µM
CCRF-CEM leukemia
  GI50: 17.7 µM
  TGI: 89.8 µM
DU-145 prostate
  GI50: 71.6 µM
  TGI: 143 µM
HCC-2998 colon
  GI50: 91.7 µM
  TGI: 171 µM
HOP-62 NSCLC
  GI50: 110 µM
  TGI: 227 µM
HS 578T breast
  GI50: 107 µM
  TGI: 263 µM
KM12 colon
  GI50: 93.9 µM
  TGI: 177 µM
MCF7 breast
  GI50: 23.5 µM
  TGI: 123 µM
MDA-MB-231 breast
  GI50: 87.7 µM
  TGI: 183 µM
MDA-MB-435
  GI50: 82.4 µM
  TGI: 155 µM
NCI-H226 lung
  GI50: 119 µM
  TGI: 267 µM
NCI-H460 lung
  GI50: 155 µM
  TGI: 488 µM
OVCAR-5 ovarian
  GI50: 95 µM
  TGI: 169 µM
PC-3 prostate
  GI50: 89.5 µM
  TGI: 170 µM
RXF 393 renal
  GI50: 96.8 µM
  TGI: 195 µM
SF-268 CNS
  GI50: 109 µM
  TGI: 236 µM
SF-295 CNS
  GI50: 102 µM
  TGI: 198 µM
SF-539 CNS
  GI50: 77.8 µM
  TGI: 155 µM
SK-MEL-2 melanoma
  GI50: 91.3 µM
  TGI: 177 µM
SK-MEL-28 melanoma
  GI50: 80.4 µM
  TGI: 153 µM
SK-MEL-5 melanoma
  GI50: 89 µM
  TGI: 161 µM
SK-OV-3 ovarian
  GI50: 145 µM
  TGI: 407 µM
SN12C renal
  GI50: 88 µM
  TGI: 168 µM
SNB-19 CNS
  GI50: 91.1 µM
  TGI: 170 µM
SNB-75 CNS
  GI50: 86.3 µM
  TGI: 159 µM
T-47D breast
  GI50: 33.3 µM
  TGI: 161 µM
TK-10 renal
  GI50: 98.1 µM
  TGI: 179 µM
U251 CNS
  GI50: 95.1 µM
  TGI: 187 µM
UACC-257 melanoma
  GI50: 87.1 µM
  TGI: 183 µM
UACC-62 melanoma
  GI50: 92 µM
  TGI: 176 µM
UO-31 renal
  GI50: 89.5 µM
  TGI: 168 µM
